The target in test [1] is T1, Protein mono-ADP-ribosyltransferase TIPARP (Homo sapiens) (UniProt Q7Z3E1).
T1 sequence (whole entry): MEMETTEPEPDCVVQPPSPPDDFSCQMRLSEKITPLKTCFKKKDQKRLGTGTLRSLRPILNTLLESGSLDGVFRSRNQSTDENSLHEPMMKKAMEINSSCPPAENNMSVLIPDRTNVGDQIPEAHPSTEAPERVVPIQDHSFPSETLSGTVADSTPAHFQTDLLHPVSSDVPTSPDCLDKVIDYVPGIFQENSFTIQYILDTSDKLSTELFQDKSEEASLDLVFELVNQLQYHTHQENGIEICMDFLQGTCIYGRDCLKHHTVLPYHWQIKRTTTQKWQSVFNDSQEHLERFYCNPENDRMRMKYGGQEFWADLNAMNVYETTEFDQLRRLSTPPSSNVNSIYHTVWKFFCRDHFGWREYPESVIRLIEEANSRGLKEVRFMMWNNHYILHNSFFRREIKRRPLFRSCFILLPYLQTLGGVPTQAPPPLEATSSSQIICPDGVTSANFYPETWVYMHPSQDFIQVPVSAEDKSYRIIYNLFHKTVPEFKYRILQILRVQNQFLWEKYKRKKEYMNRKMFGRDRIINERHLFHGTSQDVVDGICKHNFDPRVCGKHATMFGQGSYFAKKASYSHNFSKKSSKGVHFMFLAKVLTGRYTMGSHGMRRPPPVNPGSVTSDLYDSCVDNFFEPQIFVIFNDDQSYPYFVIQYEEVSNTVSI
As to the kind of experiment: Inhibition of N-terminal FLAG-tagged human PARP7 (400 to 657 residues) expressed in baculovirus infected Sf9 cells assessed as reduction in NAD+-dependent ADP ribosylation using histone as substrate at 10 uM incubated for 1 hr in presence of biotinylated NAD+ and activated DNA by chemiluminescence based microplate reader assay relative to control.

In test [2] the target is T2, Protein mono-ADP-ribosyltransferase PARP8 (Homo sapiens) (UniProt Q8N3A8).
T2 sequence (whole entry): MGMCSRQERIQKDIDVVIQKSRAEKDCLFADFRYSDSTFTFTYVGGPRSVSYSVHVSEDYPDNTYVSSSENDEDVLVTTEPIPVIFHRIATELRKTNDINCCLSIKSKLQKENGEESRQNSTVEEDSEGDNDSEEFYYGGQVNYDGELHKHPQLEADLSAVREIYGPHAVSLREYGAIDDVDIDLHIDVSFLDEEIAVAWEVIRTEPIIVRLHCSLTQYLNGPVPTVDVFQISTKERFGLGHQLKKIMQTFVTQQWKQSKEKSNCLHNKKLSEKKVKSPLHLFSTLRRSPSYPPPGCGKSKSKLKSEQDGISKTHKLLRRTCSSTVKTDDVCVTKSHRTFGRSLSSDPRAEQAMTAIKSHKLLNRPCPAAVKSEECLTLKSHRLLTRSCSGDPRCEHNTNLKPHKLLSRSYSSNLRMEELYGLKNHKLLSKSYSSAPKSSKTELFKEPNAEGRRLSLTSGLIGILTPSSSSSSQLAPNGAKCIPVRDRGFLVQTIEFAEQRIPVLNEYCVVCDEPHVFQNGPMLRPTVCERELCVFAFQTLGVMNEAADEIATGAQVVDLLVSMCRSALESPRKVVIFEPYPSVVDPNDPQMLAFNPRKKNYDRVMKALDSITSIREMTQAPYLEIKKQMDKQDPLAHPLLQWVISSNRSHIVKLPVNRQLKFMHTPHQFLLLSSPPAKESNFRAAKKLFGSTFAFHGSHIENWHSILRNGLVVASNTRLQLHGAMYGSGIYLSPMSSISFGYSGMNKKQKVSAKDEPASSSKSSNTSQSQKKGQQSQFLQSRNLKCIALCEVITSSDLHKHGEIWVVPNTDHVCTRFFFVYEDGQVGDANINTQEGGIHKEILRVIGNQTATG
As to the kind of experiment: Inhibition of PARP8 (unknown origin) assessed as reduction in NAD+-dependent ADP ribosylation using histone as substrate at 10 uM incubated for 1 hr in presence of biotinylated NAD+ and activated DNA by chemiluminescence based microplate reader assay relative to control.

Test [3] addresses T3, Protein mono-ADP-ribosyltransferase PARP12 (Homo sapiens) (UniProt Q9H0J9).
T3 sequence (whole entry): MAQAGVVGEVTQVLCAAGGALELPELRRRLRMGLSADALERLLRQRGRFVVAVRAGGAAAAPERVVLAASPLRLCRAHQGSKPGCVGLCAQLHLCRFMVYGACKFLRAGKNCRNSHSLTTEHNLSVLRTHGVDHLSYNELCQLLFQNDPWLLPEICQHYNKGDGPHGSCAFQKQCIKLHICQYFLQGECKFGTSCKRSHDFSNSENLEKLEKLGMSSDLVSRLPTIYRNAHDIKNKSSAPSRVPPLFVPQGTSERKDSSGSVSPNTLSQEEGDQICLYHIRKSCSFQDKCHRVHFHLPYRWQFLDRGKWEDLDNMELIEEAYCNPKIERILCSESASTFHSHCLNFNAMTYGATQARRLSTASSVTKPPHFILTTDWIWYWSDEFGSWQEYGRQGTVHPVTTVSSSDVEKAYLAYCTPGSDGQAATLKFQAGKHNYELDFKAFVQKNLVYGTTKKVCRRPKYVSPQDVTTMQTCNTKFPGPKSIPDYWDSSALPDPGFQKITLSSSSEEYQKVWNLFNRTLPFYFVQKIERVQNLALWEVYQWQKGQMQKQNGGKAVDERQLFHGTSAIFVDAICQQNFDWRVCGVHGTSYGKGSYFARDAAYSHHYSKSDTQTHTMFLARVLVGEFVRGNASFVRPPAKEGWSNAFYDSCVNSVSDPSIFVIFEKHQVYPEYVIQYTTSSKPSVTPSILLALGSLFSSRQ
As to the kind of experiment: Inhibition of N-terminal His-GST tagged human PARP12 (500 to 701 residues) expressed in baculovirus infected Sf9 cells assessed as reduction in NAD+-dependent ADP ribosylation using histone as substrate at 10 uM incubated for 1 hr in presence of biotinylated NAD+ and activated DNA by chemiluminescence based microplate reader assay relative to control.

With `CC1(CNC(=O)COc2cccc3c2CCCC3=O)CCN(C(=O)CCc2nc3ccccc3[nH]c2=O)CC1`, the inhibition is greater than 50% in test [1], 5% in test [2] and 16% in test [3].

On to `CNC(=O)[C@H](CNC(=O)CCc1nc2ccccc2[nH]c1=O)NC(=O)c1ccc2c(c1)CCCC2=O`, for which the inhibition in test [1], in test [2] and in test [3] was less than 25% in each case.

By inhibition is commonly meant the percentage by which the read-out fell short of the control.

Source of the values: ChEMBL document CHEMBL4699460, “Integrating DNA-encoded chemical libraries with virtual combinatorial library screening: Optimizing a PARP10 inhibitor” (Bioorg Med Chem Lett, 2020).
